In data set [1] the target is T1, P-gp (Homo sapiens, UniProt P08183).
T1 construct: expressed in transfected cells; host or cells: MDCKII
Briefly: Transwell assay, MDCKII cells stably expressing P-gp. The settings on record: 100 µmol/L doxorubicin; MDCKII-P-gp on Transwell. The format is cell-based. As to the method: In brief, MDCKII cells stably expressing P-gp or BCRP were seeded on 0.4 µm Transwell® membrane inserts (200.000 cells/insert; Ø6.5 mm, growth area 0.33 cm2) and allowed to differentiate for five days. The integrity of the monolayer was confirmed by monitoring the trans-epithelial electrical resistance (TEER) using the EVOMX system (WPI, Sarasota, FL, USA). […] Every 30 min, the incubation buffer was removed from the receiver compartment and replaced by a freshly preheated buffer for a total time of 2.5 h.

Data set [2] deals with OATP1A2. The settings on record: transiently transfected HeLa cells, ref 22 (Lee et al.); cited from earlier work.
The target in data set [3] is T2, OCT3 (Homo sapiens, UniProt O75751).
T2 sequence (O75751 1-556): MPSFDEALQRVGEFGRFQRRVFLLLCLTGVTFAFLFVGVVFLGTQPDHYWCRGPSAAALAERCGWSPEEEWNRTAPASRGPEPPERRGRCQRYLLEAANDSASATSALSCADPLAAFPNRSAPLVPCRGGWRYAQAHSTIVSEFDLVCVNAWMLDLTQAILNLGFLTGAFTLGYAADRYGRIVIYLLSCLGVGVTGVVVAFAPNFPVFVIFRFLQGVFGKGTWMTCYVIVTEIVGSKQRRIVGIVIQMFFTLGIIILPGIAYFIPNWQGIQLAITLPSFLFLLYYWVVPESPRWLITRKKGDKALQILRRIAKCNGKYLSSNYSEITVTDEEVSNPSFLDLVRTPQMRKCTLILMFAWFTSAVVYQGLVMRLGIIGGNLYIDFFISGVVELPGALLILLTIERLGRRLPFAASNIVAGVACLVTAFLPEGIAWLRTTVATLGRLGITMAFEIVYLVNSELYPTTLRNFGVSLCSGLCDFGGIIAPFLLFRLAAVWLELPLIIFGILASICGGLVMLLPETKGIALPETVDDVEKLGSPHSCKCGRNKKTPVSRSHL
Briefly: Doxorubicin uptake into MDCKII cells stably expressing OCT3.
Method: (§2) Cellular uptake studies: For all transport studies, cells were seeded in 24-well plates and incubated in a full growth medium at an initial density of 200,000 cells/well for 3 days. Before starting each transport experiment, cells were washed with a pre-warmed (37 °C) incubation buffer [64]. […] Protein concentration of whole cell lysate was determined to quantify cell density after each experiment using the BCA assay according to the manufacturer’s instructions (Pierce, Rockford, IL, USA).
Statistical evaluation: All experiments were performed at least three times unless otherwise noted. The OATP1A2*1–*3 and OCT1-3 net uptake was obtained by subtracting the uptake into wild-type cells from that of the transporter-transfected cells. Km and Vmax were assessed using Prism 5.01 (GraphPad Software, San Diego, CA, USA). The differences in the doxorubcin uptake in OATP1A2*1–*3 and in OCT1-3 transfected cells were adjusted to the membranous transporter protein levels in the whole cell lysate. Km and Vmax are presented as arithmetic means ± standard deviation.

Data set [4] relates to breast cancer cell lines MCF-7, MDA-MB-231, ZR-75-1. Briefly: Resazurin cell viability assay in breast cancer cell lines. Particulars: 100 µmol/L doxorubicin, 72 h, versus DMSO. Here is the method: (§1) Resazurin-Assay: To determine cell viability, cells were seeded at a density of 10,000 cells/well in 96-well multiplates. […] Afterward, 100 µL from each well was placed in a cavity of a 96-well plate, and the fluorescence was determined on a microplate reader (TECAN infinite M200, Tecan GmbH, Crailsheim, Germany) at an excitation wavelength of 530 nm and an emission wavelength of 590 nm.

The target of data set [5] is T3, OATP1A2*2 (Homo sapiens, UniProt P46721, I13T).
T3 sequence (P46721 1-670 I13T): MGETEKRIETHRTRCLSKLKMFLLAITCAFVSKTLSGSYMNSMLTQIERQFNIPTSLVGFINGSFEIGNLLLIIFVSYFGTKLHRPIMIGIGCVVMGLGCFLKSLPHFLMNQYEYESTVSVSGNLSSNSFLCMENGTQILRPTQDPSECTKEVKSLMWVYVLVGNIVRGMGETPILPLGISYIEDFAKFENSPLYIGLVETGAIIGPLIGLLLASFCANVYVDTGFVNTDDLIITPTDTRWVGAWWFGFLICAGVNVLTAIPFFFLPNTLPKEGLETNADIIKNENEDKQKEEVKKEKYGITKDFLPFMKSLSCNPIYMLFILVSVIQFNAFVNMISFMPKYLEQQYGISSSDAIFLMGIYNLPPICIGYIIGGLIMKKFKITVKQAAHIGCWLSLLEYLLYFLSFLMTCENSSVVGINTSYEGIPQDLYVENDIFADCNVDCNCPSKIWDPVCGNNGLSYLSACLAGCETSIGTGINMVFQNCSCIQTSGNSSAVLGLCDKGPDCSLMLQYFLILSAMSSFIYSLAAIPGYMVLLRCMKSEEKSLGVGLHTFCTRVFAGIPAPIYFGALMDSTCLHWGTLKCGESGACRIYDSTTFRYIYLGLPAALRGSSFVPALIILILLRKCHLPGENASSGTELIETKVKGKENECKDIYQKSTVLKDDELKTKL
Briefly: in vitro.
Method: as §2
(§3) Protein abundance of OATP1A2*1–*3 and OCT1–3 were measured by mass spectrometry-based targeted proteomics using a validated LC-MS/MS method as recently described [65].
200 μL of each cell lysate sample was mixed with 25 μL internal standard (5 µg/mL daunorubicin), 25 μL citric acid (1%), and 400 μL ice-cold acetonitrile for protein precipitation. […] The clear supernatant was transferred to HPLC vials. The measurement and quantitative evaluation were carried out using the LC-MS/MS system QTRAP 4000® (AB SCIEX, Darmstadt, Germany) and the Software Analyst® 1.4 (Applied Biosystems, Darmstadt, Germany).
Statistical evaluation: All experiments were performed at least three times unless otherwise noted. The OATP1A2*1–*3 and OCT1-3 net uptake was obtained by subtracting the uptake into wild-type cells from that of the transporter-transfected cells. […]

Data set [6] has as its target T4, OCT1 (Homo sapiens, UniProt O15245).
T4 sequence (O15245 1-554): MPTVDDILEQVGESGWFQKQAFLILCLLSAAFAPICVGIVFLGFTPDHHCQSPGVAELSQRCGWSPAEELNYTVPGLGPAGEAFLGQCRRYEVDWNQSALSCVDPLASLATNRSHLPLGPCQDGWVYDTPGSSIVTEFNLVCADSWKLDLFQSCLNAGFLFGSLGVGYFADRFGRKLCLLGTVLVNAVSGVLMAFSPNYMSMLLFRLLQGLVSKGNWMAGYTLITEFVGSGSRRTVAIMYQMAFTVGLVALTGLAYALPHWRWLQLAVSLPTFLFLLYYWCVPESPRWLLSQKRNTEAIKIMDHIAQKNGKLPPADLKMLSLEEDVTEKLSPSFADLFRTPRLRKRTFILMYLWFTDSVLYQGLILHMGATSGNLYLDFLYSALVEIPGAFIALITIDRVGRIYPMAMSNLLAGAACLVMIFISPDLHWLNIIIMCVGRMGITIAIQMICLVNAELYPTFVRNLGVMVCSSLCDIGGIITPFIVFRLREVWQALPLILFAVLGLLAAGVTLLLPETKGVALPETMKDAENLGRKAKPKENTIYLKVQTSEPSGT
The settings on record: OCT1 affinity to doxorubicin; cited from earlier work.

In data set [7] the test system is HEK293 cells expressing OATP1A2*1, *2, *3. Particulars: OATP1A2 transfected cells; 100 µmol/L doxorubicin, 72 h; versus DMSO. As to the method: as §1
The conditions of data set [8]: pH 7.4; cited from earlier work.
Data set [9] deals with OATP1A2*2/*3. Briefly: Doxorubicin uptake clearance by OATP1A2 genetic variants versus wild type. The format is cell-based, human. The settings on record: OATP1A2*2 and *3 versus OATP1A2*1.
Method: as §2, §3
Statistical evaluation: All experiments were performed at least three times unless otherwise noted. The OATP1A2*1–*3 and OCT1-3 net uptake was obtained by subtracting the uptake into wild-type cells from that of the transporter-transfected cells. Km and Vmax were assessed using Prism 5.01 (GraphPad Software, San Diego, CA, USA). […] Km and Vmax are presented as arithmetic means ± standard deviation.

Consider one molecule from PMC8745601 (International Journal of Molecular Sciences, 2021).

T1 sequence (P08183 whole entry): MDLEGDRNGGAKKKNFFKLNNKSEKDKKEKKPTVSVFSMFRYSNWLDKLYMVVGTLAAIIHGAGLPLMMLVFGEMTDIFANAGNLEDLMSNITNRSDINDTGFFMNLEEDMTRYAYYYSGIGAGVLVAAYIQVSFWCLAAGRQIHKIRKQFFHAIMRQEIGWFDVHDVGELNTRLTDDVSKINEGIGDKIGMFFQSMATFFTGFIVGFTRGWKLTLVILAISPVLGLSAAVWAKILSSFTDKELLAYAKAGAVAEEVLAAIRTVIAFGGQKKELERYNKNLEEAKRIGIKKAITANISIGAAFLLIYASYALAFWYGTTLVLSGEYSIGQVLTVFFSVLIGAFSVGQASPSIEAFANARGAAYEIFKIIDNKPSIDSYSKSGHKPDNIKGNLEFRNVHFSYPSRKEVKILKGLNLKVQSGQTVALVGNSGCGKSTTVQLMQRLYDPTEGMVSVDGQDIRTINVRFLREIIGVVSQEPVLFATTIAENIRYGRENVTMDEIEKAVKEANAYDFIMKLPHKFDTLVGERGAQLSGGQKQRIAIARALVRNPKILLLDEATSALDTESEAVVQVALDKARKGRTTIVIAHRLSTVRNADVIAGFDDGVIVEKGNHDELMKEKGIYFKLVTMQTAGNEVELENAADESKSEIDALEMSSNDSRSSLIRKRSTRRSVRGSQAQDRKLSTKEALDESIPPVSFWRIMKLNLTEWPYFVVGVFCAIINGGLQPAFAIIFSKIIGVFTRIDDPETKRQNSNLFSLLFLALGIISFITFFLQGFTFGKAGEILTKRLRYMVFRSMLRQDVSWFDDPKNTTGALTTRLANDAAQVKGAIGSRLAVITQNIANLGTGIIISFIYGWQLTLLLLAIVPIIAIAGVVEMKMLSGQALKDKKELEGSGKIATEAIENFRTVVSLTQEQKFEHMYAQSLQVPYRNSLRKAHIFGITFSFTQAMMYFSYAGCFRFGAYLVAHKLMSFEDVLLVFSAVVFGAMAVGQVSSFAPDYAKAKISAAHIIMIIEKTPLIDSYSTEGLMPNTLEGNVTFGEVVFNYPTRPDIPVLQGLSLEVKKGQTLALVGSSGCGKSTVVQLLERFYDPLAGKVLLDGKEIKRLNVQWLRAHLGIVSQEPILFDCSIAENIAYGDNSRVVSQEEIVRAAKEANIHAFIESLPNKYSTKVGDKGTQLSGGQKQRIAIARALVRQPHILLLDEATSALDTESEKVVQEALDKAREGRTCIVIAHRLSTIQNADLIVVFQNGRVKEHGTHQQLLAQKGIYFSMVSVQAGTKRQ

One may read the Km as the substrate concentration at which the rate is half of its maximum. By Vmax is commonly meant the top rate of the reaction or transport when substrate is in excess. With `COc1cccc2c1C(=O)c1c(O)c3c(c(O)c1C2=O)C[C@@](O)(C(=O)CO)C[C@@H]3O[C@H]1C[C@H](N)[C@H](O)[C@H](C)O1` [doxorubicin, Doxorubicin], the “vectorial transport of doxorubicin by P-gp” value in [1] is “vectorial transport from the basolateral to the apical compartment”. Further, the figures for the Km in data set [2], in [5] (HEK293 cells stably expressing OATP1A2*2) and in data set [6] were 31.7 µM, 5.84 ± 3.95 µM and around 5 µM, respectively. Further, the Vmax in data set [3] (MDCKII-OCT3, doxorubicin 0–100 µmol/L, 3 min, mean ± SD) came out at 12.9 ± 3.60 pmol/mg/min. This molecule showed a microsomal CLint at 3 min in data set [3] (human, mdck) of 0.99 ± 0.33 µL/min/mg. Besides, the “cell viability in presence of doxorubicin” value in data set [4] and in data set [7] was “significantly reduced” each time. Also, in data set [5] (other cell line), the microsomal CLint amounted to 1.39 ± 0.65 µL/min/mg. Further, the “present as cationic moiety” value in data set [8] was 89%. Also, the “diminished cellular uptake clearance by the genetic variants” value in [9] is recorded as 51–70%.
